Data on five compounds can be found in US20150147273A1, “RADIOLABELED ANALOG(S) OF COMPOUND 0118 AND USE THEREOF IN CONNECTION WITH PET AND/OR SPECT IMAGING TO DETERMINE WHETHER A PHARMACEUTICAL CONTAINING COMPOUND 0118 IS A CANDIDATE CANCER TREATMENT FOR A PATIENT” (KONINKLIJKE PHILIPS N.V., priority 2012, published 2015).

In one experiment the test system is endothelial cell proliferation. As to the kind of experiment: endothelial cell proliferation assays. The experiment is classed as cell-based.
Conditions: not given
The text has this: As an alternative to upper-rim substitution, [^18F]-labeled synthons may also be introduced at the lower rim or at an equatorial position of the calix[4]arene core of compound 0118. […] Based on this knowledge, close mimetics of compound 0118 have been produced, where one of the four lower rim substituents is replaced by a substituent containing an alkyne- or azide-functional group, providing access to [^18F]fluoroalkyltriazole-labeled compound 0118 analogues via Huisgen 1,3-dipolar cycloaddition reaction with the corresponding [^18F]fluoroalkynes and [^18F]fluoroazides, respectively.
On to `CN(C)CCNC(=O)COc1c2cccc1Cc1cccc(c1OCC(=O)NCCN(C)C)Cc1cccc(c1OCC(=O)NCCN(C)C)Cc1cccc(c1OCCc1cn(CCF)nn1)C2` [compound 5, 25,26,27-Tris-N—(N,N-dimethyl-2-aminoethyl)carbamoylmethoxy-28-{2′-[1-(2-fluorethyl)-1H-[1,2,3]triazo-4-yl]ethyloxy}calix[4]arene], for which the “anti-angiogenic potency compared with compound 0118” value is on record as “comparable anti-angiogenic potency”.

The next experiment relates to MA148 human ovarian carcinoma cells. The experiment in a line: [3H]thymidine incorporation cell proliferation assay (FIG. 15). The settings on record: compared with 0118. In kind it is cell-based. From the text:
Evaluation of the anti-angiogenic activity of lower-rim substituted 0118 analogues (compound 4, compound 5) and equatorially substituted 0118 analogues (compound 13, compound 14, compound 18a, compound 18b, compound 18c).
A general note: Incorporation of labelled thymidine or its analogues reports DNA synthesis.
`C#CCCOc1c2cccc1Cc1cccc(c1OCC(=O)NCCN(C)C)Cc1cccc(c1OCC(=O)NCCN(C)C)Cc1cccc(c1OCC(=O)NCCN(C)C)C2` [compound 4, 25,26,27-Tris-N—(N,N-dimethyl-2-aminoethyl)carbamoylmethoxy-28-(3′-butynyloxy)calix[4]arene]: the “potency of inhibition of MA148 cell proliferation relative to parent compound 0118” value is given as “at least equipotent”.
Still for that read-out and setting: the same measure for `CN(C)CCNC(=O)COc1c2cccc1Cc1cccc(c1OCC(=O)NCCN(C)C)Cc1cccc(c1OCC(=O)NCCN(C)C)Cc1cccc(c1OCCc1cn(CCF)nn1)C2` [compound 5, 25,26,27-Tris-N—(N,N-dimethyl-2-aminoethyl)carbamoylmethoxy-28-{2′-[1-(2-fluorethyl)-1H-[1,2,3]triazo-4-yl]ethyloxy}calix[4]arene]: “more potent inhibitor of MA148 cell proliferation”; for `C#CCC1c2cccc(c2OCC(=O)NCCN(C)C)Cc2cccc(c2OCC(=O)NCCN(C)C)Cc2cccc(c2OCC(=O)NCCN(C)C)Cc2cccc1c2OCC(=O)NCCN(C)C` [compound 13, 25,26,27,28-Tetrakis-N—(N,N-dimethyl-2-aminoethyl)carbamoylmethoxy-2-(prop-2′-yn-1′-yl)calix[4]arene]: “at least three times more potent than 0118”.
The same measure, in the same setting: the same measure for `CN(C)CCNC(=O)COc1c2cccc1Cc1cccc(c1OCC(=O)NCCN(C)C)C(Cc1cn(CCF)nn1)c1cccc(c1OCC(=O)NCCN(C)C)Cc1cccc(c1OCC(=O)NCCN(C)C)C2` [compound 14, 25,26,27,28-Tetrakis-N—(N,N-dimethyl-2-aminoethyl)carbamoylmethoxy-2-{[1-(2-fluorethyl)-1H-[1,2,3]triazo-4-yl]methyl}calix[4]arene]: “at least three times more potent than 0118”.
On the same count and under the same terms, under `CCCC1c2cccc(c2OCC(=O)NCCN(C)C)Cc2cccc(c2OCC(=O)NCCN(C)C)Cc2cccc(c2OCC(=O)NCCN(C)C)Cc2cccc1c2OCC(=O)NCCN(C)C` [compound 18b, 25,26,27,28-Tetrakis-N—(N,N-dimethyl-2-aminoethyl)carbamoylmethoxy-2-propylcalix[4]arene] stands “at least three times more potent than 0118”.
